Reference: patent US20250204515A1, “Heparanase Inhibition for Graft Protection” (University of Pittsburgh - Of the Commonwealth System of …, priority 2022, published 2025)
“Also recorded” adds a separate entry of the source.

Legend:
[1] = test system: rat lungs; test: Rat EVLP for 4 hours with HPSE inhibitors in the perfusate: physiology, endothelial barrier, edema; details: heparin 1000-U/hour or SF4 1 μM in perfusate
Protocol: In the heparin group, 1000-U of heparin were initially added to the EVLP perfusate, then 1000-U of heparin were administered every hour during EVLP. […] Two control conditions were included in the experimental protocol: 1) sham controls (Sham) were lungs not placed on EVLP and 2) untreated controls (Control) were lungs placed on EVLP without HPSE inhibitor treatment. EVLP physiology, endothelial integrity, inflammation and glycocalyx preservation for EVLP lungs and post-transplant lung grafts were investigated across all treatment regimens.
Ex vivo lung perfusion in rats: EVLP was performed using a commercially-available rodent EVLP system (IL-2 Isolated Perfused Rat or Guinea Pig Lung System; Harvard apparatus, Holliston, MA). Acellular Steen solution was used for EVLP perfusate and medicated with methylprednisolone (Solu-Medrol®; Pfizer, Inc., New York, NY) and cephalosporin (Cefazolin; WG critical care LLC, Paramus, NJ) equally in all experimental groups. […] Pulmonary artery pressure, peak airway pressure, and airway flow were monitored continuously, and dynamic lung compliance (Cdyn) and pulmonary vascular resistance (PVR) were analyzed.
Evaluation of endothellal barrier Integrity After 4 hours of EVLP, 60 mg of Evans blue dye (EBD, Millipore-Sigma, Burlington, MA) was administered into the perfusate to assess vascular endothelial permeability. After 30 minutes of perfusion, the lung vascular bed was rinsed with 20 ml of phosphate-buffered saline (PBS), and slices of lungs were incubated in formamide (Millipore Sigma) overnight at 60° C. Absorbance of the extractant was measured at 620 nm, and EBD was normalized to dry-tissue weight.
Wet-to-Dry (W/D) weight ratio: Lung tissues collected 2 hours after transplant were immediately weighed then placed in a 60° C. oven to dry for 72 hours. Tissues were weighed again after drying to determine the wet-to-dry lung weight ratio.

[2] = test system: glycosaminoglycans (GAGs), syndecan-1; test: Glycocalyx shedding in rat lungs during EVLP (GAGs, syndecan-1 ELISA, immunofluorescence); details: after 4 hours EVLP; SF4 vs heparin-treated, heparin vs controls
Protocol: Syndecan-1 ELISA: Syndecan-1 concentrations in EVLP perfusate were quantitated using ELISA (Immunotag™ Rat Syndecan-1 ELISA, G-Biosciences, Geno Technology, Inc., St. Louis, MO). ELISA was performed according to the manufacturer's instructions using perfusate samples acquired after 4 hours of EVLP.
Determination of glycosaminoglycans (GAGS): The concentration of GAGs in rat EVLP perfusate at 4 hours was quantitated using 1,9-dimethylmethylene blue (DMMB, Millipore Sigma). The DMMB solution (pH˜3.0) was prepared by dissolving 16 mg/I DMMB in distilled H2O containing 3.04 g/I glycine, 1.6 g/l NaCl and 95 ml 0.1 M acetic acid. Briefly, 1 ml DMMB solution was mixed with 100 μl EVLP perfusate then incubated for 18 h at room temperature. The tubes were then centrifuged at 14,000 rpm for 20 min at 4° C. Supernatants were carefully decanted, 100 μl dissolvent buffer (4 M guanidine hydrochloride, 50 mM sodium acetate, 10% propan-1-ol, pH 6.8) was added to each pellet, and the tubes were incubated at 40° C. and vortexed until GAG-DMMB pellets were completely dissolved. GAG content in each sample was measured spectrophotometrically at 656 nm.
(§1) Tissue staining and histopathological analysis: Formalin-fixed, paraffin-embedded lung tissues collected 2 hours after transplantation were sectioned to 4 μm thickness and stained with hematoxylin and eosin. In parallel, sections of tissue collected after 4 hours of EVLP were stained for immunofluorescence imaging using primary antibodies for syndecan-1 (DL-101) (#sc-12765, Santa Cruz) and caveolin-1 (#3238, Cell Signaling Technology, Danvers, MA) and with Hoechst 33342 dye (Thermo Scientific). Donkey Cy3-conjugated anti-mouse IgG (#AP192C, MilliporeSigma, Burlington, MA) and Cy5-conjugated goat anti-rabbit IgG (#A10523, Thermo Scientific) secondary antibodies were used to detect primary antibodies. Stained slides were scanned with a whole-slide image scanner (Axio Scan.Z1; Carl Zeiss AB, Oberkochen, Germany) and analyzed with digital image processing software (ZEN lite blue edition; Carl Zeiss).

[3] = test system: human lung microvascular endothelial cells (HLMVECs); test: In-vitro cellular toxicity test for HPSE inhibitor candidates
Protocol: In-vitro cellular toxicity test for HPSE Inhibitor candidates: Human lung microvascular endothelial cells (HLMVECs) were obtained from the American Type Culture Collection (Rockville, MD, USA). Cells were cultured in a humidified incubator at 37° C. and 5% CO2 and grown in endothelial growth medium (EGM™-2 Endothelial Cell Growth Medium-2, Lonza, Basel, Switzerland) supplemented with 2% heat-inactivated fetal bovine serum and 0.04% hydrocortisone. Cell media was replaced every 48 hours, and the cells were split upon 80-90% confluence.
Final tested concentrations of HPSE inhibitors were calculated based upon repeatable in vitro dose-response studies. After 24 hours incubation, cell viability was confirmed by Trypan blue exclusion assay. Total mRNA was isolated using Trizol (Thermo Fisher Scientific Inc., Waltham, MA) and relative messenger RNA (mRNA) expression levels of hemeoxygenase-1 (HO-1), interleukin (IL)-6, tumor necrosis factor (TNF)-α, monocyte chemoattractant protein (MCP)-1, B-cell lymphoma 2 Associated X (Bax), B-cell lymphoma 2 (Bcl-2), B-cell lymphoma-extra-large (Bcl-xL) were quantified by SYBR Green 2-step, real-time, reverse transcription-polymerase chain reaction (RT-PCR). Relative gene expression levels were normalized to mRNA expression of glyceraldehyde-3-phosphate dehydrogenase (GAPDH) and compared to relative mRNA expression levels in control-treated HLMVEC.

[4] = test system: rat lung grafts; test: Rat orthotopic left lung transplantation following EVLP; format: in vivo; details: 2 hours after transplant following 4 hours of EVLP
Protocol: Rat orthotopic left lung transplantation following EVLP: Orthotopic, single-lung transplantation of the left lung was performed using the 3-cuff method. After EVLP for 4 hours, the lungs were cooled with 4° C. Perfadex on the EVLP system and stored at 4° C. for 1 hour prior to transplantation. The recipient animals were sacrificed 2 hours after reperfusion. When analyzing graft function, the native lung was clamped, 100% 02 was administered for 5 minutes through a ventilator, and the recipient's blood was sampled from the graft pulmonary vein for blood gas analysis.
(§2) Graft tissues collected after 4 hours of EVLP and 2 hours after reperfusion were examined for relative mRNA expression levels of interleukin (IL)-6, IL-1, tumor necrosis factor (TNF)-α, and glyceraldehyde-3-phosphate dehydrogenase (GAPDH). Gene expression levels were normalized to GAPDH mRNA levels.
as §1

[5] = test system: heparanase (HPSE); test: In vitro β-D-glucuronidase activity assay (4-MUG substrate)
Protocol: In vitro β-D-glucuronidase activity assay Heparanase activity was measured via β-Glucuronidase activity assay using 4-methylumbelliferyl-β-D-glucuronide (4-MUG) substrate (Millipore-Sigma). As a source of enzymes, platelet rich plasma (PRP) obtained from rat whole blood or rat lung whole tissue lysate, was used. […] Fluorescence (λex 360 nm/λem 460 nm) was continuously measured for 60 minutes using a fluorescence microplate reader (BioTech Synergy HTX, Agilent Technologies, Santa Clara, CA).

[6] = test system: HPSE1, MMP2, IL-6, IL-1β, TNF-α mRNA; IκB-α; test: Real-time RT-PCR and western blotting in rat lung tissue after 4 hours of EVLP
Protocol: as §2
Western blotting: Total isolated proteins were extracted/resolved by 10% SDS-PAGE followed by transfer to 0.2 μm nitrocellulose membranes (Bio-Rad Laboratories, Hercules, CA, USA). Membranes were blocked with 5% non-fat milk at room temperature for 2 hours and then incubated overnight at 4° C. with the following primary antibodies: inhibitor of KB-α (IκB-α; #9242, Cell Signaling Technology, Inc., Danvers, MA) and β-actin (#A1978, Millipore-Sigma). Membranes were then incubated with either goat anti-mouse IgG (H+L) (#31430, Thermo Fisher Scientific Inc.; 1:5000) or goat anti-rabbit IgG (H+L) (#31460, Thermo Fisher Scientific Inc.; 1:3000) horseradish peroxidase-conjugated polyclonal secondary antibodies at room temperature for 2 hours. Proteins were visualized using an enhanced chemiluminescence kit (Abcam), and protein bands were imaged and analyzed using Image Lab software (Version 6.0; Bio-Rad Laboratories, Inc., Hercules, CA). The intensities of protein bands were quantitated by Image J software (National Institutes of Health, Bethesda, MD).

[7] = test system: HPSE; test: HPSE activity assay in rat lung tissue after 4 hours of EVLP; details: after 4-hours EVLP; heparin 1000-U/hour or SF4 1 μM in perfusate
Protocol: HPSE activity assay. HPSE activity was measured via a β-glucuronidase activity assay using 4-methylumbelliferyl-β-D-glucuronide (4-MUG) substrate (Millipore-Sigma). Briefly, after 4 hours of EVLP, lung tissues were homogenized in cold PBS. […] Fluorescence (λex 360 nm/λem 460 nm) was continuously measured for 60 minutes using a fluorescence microplate reader (BioTech Synergy HTX, Agilent Technologies, Santa Clara, CA).

inhibition of HPSE in vitro, compared with SF4 ([5]; in vitro data): not as effective as SF4
β-D-glucuronidase activity, dose response ([5]; in vitro, FIG. 8): increased in a dose-dependent manner
Substance: heparin
pulmonary vascular resistance (PVR) during EVLP ([1]; 4-hour EVLP): increased
dynamic lung compliance (Cdyn) during EVLP ([1]; 4-hour EVLP, vs control): neither heparin nor SF4 altered Cdyn
Evans blue dye (EBD) accumulation in lung tissue ([1]; after 4-hours EVLP): significantly more EBD had accumulated
wet-to-dry (W/D) ratio ([1]; after 4 hours of EVLP): further augmented
syndecan-1 concentration in EVLP perfusate [2]: markedly increased; also recorded: significantly higher
toxicity against HLMVECs (endothelial cell cultures) [3]: safe
H&E histology of grafts [4]: swollen alveolar walls, congestion in the blood vessels, and fluid leaks into the alveolar space
post-transplant lung function (P/F ratio) [4]: significantly lower
IL-1β mRNA expression ([6]; lung tissue after 4-hours EVLP): increased
IL-6 mRNA expression ([6]; lung tissue after 4-hours EVLP): increased
TNF-α mRNA expression ([6]; lung tissue after 4-hours EVLP): increased
pro-MMP2 gene expression ([6]; lung tissue after 4 hours of EVLP): further upregulated
HPSE1 mRNA expression ([6]; lung tissue after 4 hours of EVLP, vs sham): not altered
HPSE activity in the lungs [7]: partially inhibited; also recorded: not sufficiently nor significantly inhibited
